{
  "source": "paper PMC10675597",
  "about": "“Design, Synthesis, and Antisickling Investigation of a Thiazolidine Prodrug of TD-7 That Prolongs the Duration of Action of Antisickling Aromatic Aldehyde” (Pharmaceutics, 2023)",
  "key": {"[1]": {"assay": "Solubility study of Pro-7 in solvents", "assay_type": "physicochemical", "conditions": "25 °C, 48 h", "experimental": "The solubility of Pro-7 was tested in water, ethanol, methanol, dichloromethane, chloroform, and acetone. An excess amount of the Pro-7 was added to a known volume of each solvent in a screw cap vial. Each vial was kept in a shaking water bath at 25 °C for 48 h. The content of each vial was filtered using an Acrodisc® syringe filter of […] (Port Washington, NY, USA), and the concentration of Pro-7 determined spectrophotometrically at 296 nm."}, "[2]": {"assay": "Drug solubility in SNEDDS formulation", "assay_type": "physicochemical", "conditions": "SNEDDS (oleic acid 15%, tween 80 10%, PEG 400 75%), 25 °C, 48 h", "experimental": "To determine the drug solubility in the prepared SNEDDS formulation, excess amount (approximately 300 mg) of Pro-7 was added to 4 mL of the prepared SNEDDS. The mixture was vortex and kept in a shaking water bath at 25 °C for 48 h, and then filtered using Acrodisc® syringe filter ([…]) and the concentration of Pro-7 determined spectrophotometrically at 296 nm."}, "[3]": {"assay": "In-vivo pharmacokinetic study in rat", "set-up": "species or system male Sprague Dawley rats", "experimental": "Investigations were carried out to examine the pharmacokinetic profiles of Pro-7, including the enteric-coated microspheres and the intravenous (IV) formulation using a one-period parallel design. The study design and conduct adhered to ethical guidelines and regulatory standards to ensure the welfare of the animals. The study was also conducted in strict adherence to internationally recognized guidelines for ethical research and regulatory standards. The principles of Good Clinical Practice (GCP), the guidelines set forth by the International Conference on Harmonization (ICH), and the rigorous standards of the European Medicines Agency (EMA) served as the framework for the study’s execution. The protocol for the animal study underwent a thorough evaluation and received formal approval from the Research Ethics Committee at the Faculty of Pharmacy, King Abdulaziz University, Saudi Arabia.\nMale Sprague Dawley rats, each with an average weight of 250 g were housed in a controlled facility with a 12-h light/dark cycle, at constant temperature of 25 °C, with continuous access to both food and water throughout the study. All animals were acclimated to standard housing for at least 7 days. The animals were separated into distinct groups (n = 5). Group I was treated with a single PO (50 mg/kg body weight) dose, while Group II was administered a single IV (25 mg/kg body weight) dose of Pro-7. Additional three control groups were included to validate and enhance the robustness of our findings. These include a normal control group without treatment, a control IV administration group that was administered non-medicated SNEDDS formulation, and a control oral administration group that was given non-medicated oral formulation.\nThe oral formulation was suspended in 1% aqueous carboxymethyl cellulose. Blood samples from the jugular vein, at 0.25 (for IV only), 0.5, 2, 4, 8, 10, 12, and 24 h were collected into EDTA tubes. To determine the concentration of TD-7 in the whole blood, aliquots (45 µL) of blood samples were mixed with 20 µL of warfarin (used as IS) in a concentration of 1 µg/mL and 500 µL of 1% formic acid in acetonitrile. The vials were centrifuged for 5 min at 10,000 rpm, and 2 µL of the resulting solution was analyzed by LC-MS/MS.\nThe concentration of both TD-7 and Pro-7 in the collected blood samples were quantified using LC–MS/MS method utilizing LLS/DMPK/005 Shimadzu-8045 LC-MS/MS instrument equipped with Lab solution 6.8 software. Linearity of the TD-7 and Pro-7 assay methods was verified within the concentration range 8.21–3776 and 20.4–9396 ng/mL, respectively. A regression coefficient (R^2) of more than 0.993 was obtained. The analytical method was validated in accordance with the FDA Bio-analytical Method Validation Guidelines 2003. Chromatographic separation was conducted on Atlantis C18 (4.6 × 50 mm, 3.5 µm) at 30 °C. The injection volume was 2 µL, the flow rate was adjusted at 0.7 mL/min, the total run time was 2.5 min, and the mobile phase consisted of 0.1% formic acid in acetonitrile:10 mM aqueous ammonium formate (70:30 v/v). The retention times for TD-7, Pro-7 and IS were 1.047, 1.178, and 1.503 min, respectively. The limit of quantification for TD-7 and Pro-7 was established at of 8.21 and 20.4, respectively.\nPharmacokinetic parameters were calculated using non-compartmental analysis with Kinetica TM (version 4, Thermo Electron Corporation, Waltham, MA, USA) software. The following parameters were determined: Maximum plasma concentration (Cmax), Elimination half-life (t½), Area under the plasma concentration-time curve from time 0 to the last measurable concentration (AUC0–t), Area under the plasma concentration-time curve from time 0 to infinity (AUC0–∞), Clearance (Cl), and Volume of distribution (Vd).\nThe t½ was determined as 0.693 divided by the elimination rate constant. […]"}, "[4]": {"set-up": "method as in PMID 34657559, PMID 9490025, PMID 10376886, PMID 11154732", "conditions": "cited from earlier work"}, "[5]": {"conditions": "intravenous 25 mg/kg Pro-7, rat, blood, n = 5"}, "[6]": {"conditions": "intravenous 25 mg/kg Pro-7, rat, n = 5"}, "[7]": {"conditions": "oral 50 mg/kg Pro-7 (enteric-coated formulation), rat, blood, n = 5"}, "[8]": {"conditions": "oral 50 mg/kg Pro-7 (enteric-coated formulation), rat, n = 5"}},
  "data": [
    {"compound": "1-(2-(3-((6-(hydroxymethyl)pyridin-2-yl)methoxy)-5 methoxyphenyl)thiazolidin-4-yl)propan-1-one [Pro-7]", "values": [
      {"measurement": "solubility", "setting": "[1]; acetone", "result": 11.64, "unit": "mg/mL"},
      {"measurement": "solubility", "setting": "[1]; chloroform", "result": 66.43, "unit": "mg/mL"},
      {"measurement": "solubility", "setting": "[1]; dichloromethane", "result": 54.89, "unit": "mg/mL"},
      {"measurement": "solubility", "setting": "[1]; ethanol", "result": 85.98, "unit": "mg/mL"},
      {"measurement": "solubility", "setting": "[1]; methanol", "result": 88.34, "unit": "mg/mL"},
      {"measurement": "aqueous solubility", "setting": "[1]; water", "result": 0.165, "unit": "mg/mL"},
      {"measurement": "solubility in the prepared SNEDDS formulation", "setting": "[2]", "result": 68.94, "unit": "mg/mL"},
      {"measurement": "AUC0–t", "setting": "[3]; [5]", "result": "1830 ± 737", "unit": "ng·h/mL"},
      {"measurement": "AUC0–∞", "setting": "[3]; [5]", "result": "1956 ± 792", "unit": "ng·h/mL"},
      {"measurement": "Cmax", "setting": "[3]; [5]", "result": "1426 ± 926", "unit": "ng/mL"},
      {"measurement": "t½", "setting": "[3]; [5]", "result": "4.98 ± 1.89", "unit": "h"},
      {"measurement": "Cl", "setting": "[3]; [6]", "result": "238 ± 85.9", "unit": "mL/min/kg"},
      {"measurement": "Vd", "setting": "[3]; [6]", "result": "98.9 ± 45.3", "unit": "L/kg"},
      {"measurement": "AUC0–t", "setting": "[3]; [7]", "result": "672 ± 255", "unit": "ng·h/mL"},
      {"measurement": "AUC0–∞", "setting": "[3]; [7]", "result": "730 ± 225", "unit": "ng·h/mL"},
      {"measurement": "Cmax", "setting": "[3]; [7]", "result": "469 ± 322", "unit": "ng/mL"},
      {"measurement": "Tmax", "setting": "[3]; [7]", "result": "0.5 ± 0.0", "unit": "h"},
      {"measurement": "t½", "setting": "[3]; [7]", "result": "4.73 ± 1.22", "unit": "h"},
      {"measurement": "Cl", "setting": "[3]; [8]", "result": "200.89 ± 34.3", "unit": "mL/min/kg"},
      {"measurement": "Vd", "setting": "[3]; [8]", "result": "83.7 ± 22.1", "unit": "L/kg"},
      {"measurement": "Fraction of drug absorbed (% F)", "setting": "[3]; oral 50 mg/kg vs intravenous 25 mg/kg, rat", "result": 18.4, "unit": "%"}
    ]},
    {"compound": "COc1ccc(OCc2cccc(CO)n2)c(C=O)c1", "note": "[TD-7, 2-((6-(hydroxymethyl)pyridin-2-yl)methoxy)-5-methoxybenzaldehyde]", "values": [
      {"measurement": "oral bioavailability (in words)", "setting": "[4]", "result": "low oral bioavailability"}
    ]}
  ]
}
